# Test results reported in ChEMBL document CHEMBL3085710, “Pahangensin A and B, two new antibacterial diterpenes from the rhizomes of Alpinia pahangensis Ridley” (2013).
# How the values were obtained:
# Bacillus subtilis = experiment: Antibacterial activity against Bacillus subtilis (Ehrenberg) Cohn ATCC 6051 after overnight incubation by broth microdilution method; assay type: functional
# Staphylococcus aureus = experiment: Antibacterial activity against Staphylococcus aureus Rosenbach ATCC 9144 after overnight incubation by broth microdilution method; assay type: functional
# Bacillus cereus = experiment: Antibacterial activity against Bacillus cereus Frankland and Frankland ATCC 11778 after overnight incubation by broth microdilution method; assay type: functional
# Salmonella typhimurium = experiment: Antibacterial activity against Salmonella typhimurium (Loeffler) Castellani and Chalmers ATCC 14028 after overnight incubation by broth microdilution method; assay type: functional, Salmonella enterica subsp. enterica serovar Typhimurium; conditions: Salmonella enterica
# Salmonella sp. = experiment: Antibacterial activity against Salmonella sp. ATCC 700623 after overnight incubation by broth microdilution method; assay type: functional
# Escherichia coli = experiment: Antibacterial activity against Escherichia coli (Migula) Castellani and Chalmers ATCC 25922 after overnight incubation by broth microdilution method; assay type: functional
SMILES,MIC (Bacillus subtilis),MIC (Staphylococcus aureus),MIC (Bacillus cereus),MIC (Salmonella sp.),MIC (Escherichia coli),MIC (Salmonella typhimurium)
CC1(C)S[C@@H]2[C@H](NC(=O)Cc3ccccc3)C(=O)N2[C@H]1C(=O)O [PENICILLIN G],15.6 µg/mL,3.91 µg/mL,62.5 µg/mL,31.2 µg/mL,125 µg/mL,125 µg/mL
C=C1CC[C@H]2C(C)(C)CCC[C@]2(C)[C@H]1C/C=C(/C=O)CC(=O)OC,–,–,52.1 µg/mL,–,–,–

# The next compounds have a lower MIC (Bacillus cereus) than those just listed; values first:
MIC (Bacillus subtilis),MIC (Staphylococcus aureus),MIC (Bacillus cereus),MIC (Salmonella sp.),MIC (Escherichia coli),SMILES,MIC (Salmonella typhimurium)
31.2 µg/mL,52.1 µg/mL,31.2 µg/mL,–,–,C=C1CC[C@H]2C(C)(C)CCC[C@]2(C)[C@H]1/C=C/C1=C(C2=C(/C=C/[C@H]3C(=C)CC[C@H]4C(C)(C)CCC[C@]34C)COC2=O)C(=O)OC1,–
31.2 µg/mL,31.2 µg/mL,15.6 µg/mL,15.6 µg/mL,15.6 µg/mL,CN[C@@H]1[C@H](O[C@H]2[C@H](O[C@H]3[C@H](O)[C@@H](O)[C@H](N=C(N)N)[C@@H](O)[C@@H]3N=C(N)N)O[C@@H](C)[C@]2(O)C=O)O[C@@H](CO)[C@H](O)[C@H]1O [STREPTOMYCIN],62.5 µg/mL
15.6 µg/mL,31.2 µg/mL,15.6 µg/mL,15.6 µg/mL,7.81 µg/mL,O=C(N[C@H](CO)[C@H](O)c1ccc([N+](=O)[O-])cc1)C(Cl)Cl [CHLORAMPHENICOL],15.6 µg/mL
